Data reported in patent publication US20110251104A1, “COMPOSITIONS AND METHODS FOR DETECTING DEACETYLASE ACTIVITY” (priority 2010, published 2011).

Biological target: T1, Sirt1 (Homo sapiens, UniProt Q96EB6)
T1 construct: purchased
T1 sequence (Q96EB6 1-747): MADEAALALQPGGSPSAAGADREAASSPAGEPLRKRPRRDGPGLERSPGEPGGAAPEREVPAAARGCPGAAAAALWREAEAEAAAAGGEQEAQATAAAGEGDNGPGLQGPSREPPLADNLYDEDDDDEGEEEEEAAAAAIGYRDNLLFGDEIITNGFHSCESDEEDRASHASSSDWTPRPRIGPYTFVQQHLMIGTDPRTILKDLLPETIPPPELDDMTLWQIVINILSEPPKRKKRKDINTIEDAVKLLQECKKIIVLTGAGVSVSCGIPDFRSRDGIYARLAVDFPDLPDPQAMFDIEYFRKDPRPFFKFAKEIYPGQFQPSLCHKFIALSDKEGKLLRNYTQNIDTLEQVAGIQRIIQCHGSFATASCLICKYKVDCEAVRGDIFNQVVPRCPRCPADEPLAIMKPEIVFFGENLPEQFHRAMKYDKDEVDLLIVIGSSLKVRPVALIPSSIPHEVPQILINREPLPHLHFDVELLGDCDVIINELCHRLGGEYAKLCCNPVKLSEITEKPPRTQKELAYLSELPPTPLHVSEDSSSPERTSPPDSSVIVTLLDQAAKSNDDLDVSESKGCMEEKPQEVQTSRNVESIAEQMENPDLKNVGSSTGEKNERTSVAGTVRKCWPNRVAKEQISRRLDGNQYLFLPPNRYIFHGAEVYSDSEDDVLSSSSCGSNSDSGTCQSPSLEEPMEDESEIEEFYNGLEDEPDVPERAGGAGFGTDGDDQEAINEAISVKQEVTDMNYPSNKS
Test: Km determination for SIRT1 substrates by RapidFire mass spectrometric quantification of acetyl-ADPr
Format: biochemical
Details: room temperature, 50 mM Tris pH 7.5, 1/1500 dilution of enzyme, acetyl-ADPr detection
Description: A high-throughput in vitro assay using the current invention was developed against a commercially available SIRT1 enzyme preparation. The assay was then used to fully characterize the enzyme preparation through a series of kinetic and end-point assays. Commercially available ADP-ribose was used to develop mass spectrometric methods and separation techniques for sensitive and selective detection in the assay. A quantitative analysis method for acetyl-ADPr, a compound that has a chemical structure and properties similar to ADP-ribose, was developed based on the method developed for ADP-ribose.
Next, ADP-ribose was dissolved at a concentration of 1.0 micromolar in an assay buffer consisting of 50 mM Tris pH 7.5 containing 137 mM NaCl, 2.7 mM KCl, 1 mM MgCl2, 0.1% BSA, 1 mM NAD^+. Separation conditions to purify ADP-ribose from the assay buffer for mass spectrometric analysis were developed on a RapidFire® 200 High-Throughput Mass Spetrometry system. The optimized conditions for sample desalting were determined to be a sample wash with water for 3 seconds at a flow rate of 1.5 mL/min and sample elution with a 2:1:1 solution of water:acetonitrile:acetone containing 5 mM ammonium acetate for 3.5 seconds at a flow rate of 1.25 mL/min. […]

Km: 54 ± 1 µM
Compound: NC(=O)c1ccc[n+]([C@@H]2O[C@H](COP(=O)([O-])OP(=O)(O)OC[C@H]3O[C@@H](n4cnc5c(N)ncnc54)[C@H](O)[C@@H]3O)[C@@H](O)[C@H]2O)c1 [NAD+, nicotimamide adenine dinucleotide]
